Columns and labels:
[1] = test system: Listeria monocytogenes NCTC 11994; assay: MIC by agar dilution, single strains; type: cell-based; conditions: NCTC11994, 22 hours of incubation, read-out: Minimum inhibitory concentration (MIC)
Description: (§1) Determining the minimum inhibitory concentrations (MIC). All the MICs were determined using an agar dilution method. This required use of a medium without a defined antagonist (peptone-free), prepared as described previously with the inclusion of 2% horse blood lysed with saponin, 25.0 μg/mL of NAD and 25.0 μg/mL of hemin [17]. The compounds tested were dissolved in sterile deionised water and incorporated into the agar medium in a concentration range of 0.0031 to 8.0 μg/mL (0.016 to 32 μg/mL for gram-positive bacteria). All the isolates were prepared at a density equivalent to 0.5 McFarland units in sterile deionised water using a densitometer (approximately 1.5×10^8 CFU/mL), and then diluted to 1 for 15. An aliquot of 1 μL of each diluted suspension was then placed onto plates with a multispot inoculator to give the final recommended inoculation of 10 000 CFU/spot. The MICs of fosfomycin were determined by the same method, except that the IsoSensitest medium (Oxoid, Basingstoke, United Kingdom) was used, plus 25.0 μg/mL of glucose-6-phosphate (Sigma, Poole, United Kingdom) and an extended range of fosfomycin concentrations. All the dishes (including the antimicrobial-free controls) were incubated for 22 hours at 37° C. All the tests were performed on at least two independent replicates in order to examine the reproducibility.

[2] = test system: Staphylococcus aureus NCTC 11939 (SARM); assay: MIC by agar dilution, single strains; type: cell-based; conditions: NCTC11939, 22 hours of incubation, read-out: Minimum inhibitory concentration (MIC)
Description: as §1

[3] = test system: Acinetobacter baumannii ATCC 19606; assay: MIC by agar dilution, single strains; type: cell-based; conditions: ATCC19606, 22 hours of incubation, read-out: Minimum inhibitory concentration (MIC)
Description: as §1

[4] = test system: Enterobacter cloacae NCTC 11936; assay: MIC by agar dilution, single strains; type: cell-based; conditions: NCTC11936, 22 hours of incubation, read-out: Minimum inhibitory concentration (MIC)
Description: as §1

[5] = test system: Yersinia enterocolitica NCTC 11176; assay: MIC by agar dilution, single strains; type: cell-based; conditions: NCTC11176, 22 hours of incubation, read-out: Minimum inhibitory concentration (MIC)
Description: as §1

[6] = test system: Escherichia coli NCTC 10418; assay: MIC by agar dilution, single strains; type: cell-based; conditions: NCTC10418, 22 hours of incubation, read-out: Minimum inhibitory concentration (MIC)
Description: as §1

[7] = test system: Enterococcus faecium NCTC 7171; assay: MIC by agar dilution, single strains; type: cell-based; conditions: NCTC7171, 22 hours of incubation, read-out: Minimum inhibitory concentration (MIC)
Description: as §1

[8] = test system: Staphylococci epidermidis NCTC 11047; assay: MIC by agar dilution, single strains; type: cell-based; conditions: 22 hours of incubation, read-out: Minimum inhibitory concentration (MIC)
Description: as §1

[9] = test system: Escherichia coli NCTC 12241; assay: MIC by agar dilution, single strains; type: cell-based; conditions: NCTC12241, 22 hours of incubation, read-out: Minimum inhibitory concentration (MIC)
Description: as §1

[10] = test system: Burkholderia cepacia ATCC 25416; assay: MIC by agar dilution, single strains; type: cell-based; conditions: ATCC25416, 22 hours of incubation, read-out: Minimum inhibitory concentration (MIC)
Description: as §1

[11] = test system: Salmonella typhimurium NCTC 74; assay: MIC by agar dilution, single strains; type: cell-based; conditions: Salmonella enterica, 22 hours of incubation, read-out: Minimum inhibitory concentration (MIC)
Description: as §1

[12] = test system: Staphylococcus aureus NCTC 6571; assay: MIC by agar dilution, single strains; type: cell-based; conditions: NCTC6571, 22 hours of incubation, read-out: Minimum inhibitory concentration (MIC)
Description: as §1

[13] = test system: Pseudomonas aeruginosa NCTC 10662; assay: MIC by agar dilution, single strains; type: cell-based; conditions: NCTC10662, 22 hours of incubation, read-out: Minimum inhibitory concentration (MIC)
Description: as §1

[14] = test system: Providencia rettgeri NCTC 7475; assay: MIC by agar dilution, single strains; type: cell-based; conditions: NCTC7475, 22 hours of incubation, read-out: Minimum inhibitory concentration (MIC)
Description: as §1

[15] = test system: Enterococcus faecalis NCTC 775; assay: MIC by agar dilution, single strains; type: cell-based; conditions: NCTC775, 22 hours of incubation, read-out: Minimum inhibitory concentration (MIC)
Description: as §1

[16] = test system: Klebsiella pneumoniae NCTC 9528; assay: MIC by agar dilution, single strains; type: cell-based; conditions: NCTC9528, 22 hours of incubation, read-out: Minimum inhibitory concentration (MIC)
Description: as §1

[17] = test system: Salmonella enteritidis NCTC 6676; assay: MIC by agar dilution, single strains; type: cell-based; conditions: Salmonella enterica, 22 hours of incubation, read-out: Minimum inhibitory concentration (MIC)
Description: as §1

[18] = test system: Serratia marcescens NCTC 10211; assay: MIC by agar dilution, single strains; type: cell-based; conditions: NCTC10211, 22 hours of incubation, read-out: Minimum inhibitory concentration (MIC)
Description: as §1

E. cloacae (27) = assay: MIC by agar dilution; type: cell-based, Enterobacter cloacae; conditions: Enterobacter cloacae, E. cloacae (27)
From the text: (§2) Bacterial isolates. […] These included Citrobacter freundii (n=5), other species of Citrobacter (n=4), Enterobacter aerogenes (n=1), Enterobacter cloacae (n=27), Escherichia coli (n=53), Klebsiella oxytoca (n=5), Klebsiella pneumoniae (n=87), Kluyvera spp (n=1), Proteus mirabilis (n=8), Providencia rettgeri (n=2), Salmonella spp (n=3), and Serratia marcescens (n=1). Among these 197 isolates, there were 128 (65%) carbapenemase producers, including; 87 with NDM-1, 9 with IMP, 11 with KPC, 14 with OXA-48 and 7 with VIM. The majority of the carbapenemase producers jointly produced broad-spectrum β-lactamases (BSBL) or cephalosporinases (AmpC β-lactamases), but the latter are not documented for the sake of clarity.
as §1

E. faecium (34) = assay: MIC by agar dilution; type: cell-based, Enterococcus faecium; conditions: Enterococcus faecium, E. faecium (34)
From the text: (§3) A collection of 50 isolates of Staphylococci aureus included 36 strains of methicillin-resistant S. aureus (MRSA) frequently encountered in Europe, including strains isolated in Belgium, Finland, France, Germany and the United Kingdom. Another strain of MRSA, NCTC 11939, was included as a control, as well as a methicillin-sensitive control (NCTC 6571). Twelve other isolates of methicillin-sensitive Staphylococcus aureus (MSSA) recently collected from blood cultures were also included. Finally, 50 isolates of enterococci included two control strains (Enterococcus faecalis NCTC 755 and Enterococcus faecium NCTC 7171) and 48 isolates originating from clinical samples obtained from at least three different hospitals. The clinical isolates included E. faecalis (n=10), E. faecium (n=33), Enterococcus casseliflavus (n=3), Enterococcus gallinarum (n=2).
as §1

AmpC (22) = assay: MIC by agar dilution; type: cell-based, Enterobacteriaceae
From the text: as §2, §1

E. faecalis (11) = assay: MIC by agar dilution; type: cell-based, Enterococcus faecalis; conditions: Enterococcus faecalis, E. faecalis (11)
From the text: as §3, §1

[19] = test system: carbapenemase-producing Enterobacteriaceae; assay: MIC by agar dilution; type: cell-based
From the text: as §2, §1

Enterobacteriaceae (197) = assay: MIC by agar dilution; type: cell-based; conditions: Enterobacteriaceae (197)
From the text: as §2, §1

[20] = test system: Enterobacteriaceae with a broad-spectrum β-lactamase; assay: MIC by agar dilution; type: cell-based; conditions: BSBL (47)
From the text: as §2, §1

All Enterococci (50) = assay: MIC by agar dilution; type: cell-based; conditions: All Enterococci (50)
From the text: as §3, §1

[21] = test system: glycopeptide-resistant enterococci; assay: MIC by agar dilution; type: cell-based; conditions: GRE (43)
From the text: as §3, §1

[22] = test system: methicillin-sensitive Staphylococcus aureus; assay: MIC by agar dilution; type: cell-based; conditions: MSSA (13)
From the text: as §3, §1

[23] = test system: methicillin-resistant Staphylococcus aureus; assay: MIC by agar dilution; type: cell-based; conditions: Staphylococcus aureus, MRSA (37)
From the text: as §3, §1

All S. aureus (50) = assay: MIC by agar dilution; type: cell-based, Staphylococcus aureus; conditions: Staphylococcus aureus, All S. aureus (50)
From the text: as §3, §1

K. pneumoniae (87) = assay: MIC by agar dilution; type: cell-based, Klebsiella pneumoniae; conditions: Klebsiella pneumoniae, K. pneumoniae (87)
From the text: as §2, §1

E. coli (53) = assay: MIC by agar dilution; type: cell-based, Escherichia coli; conditions: E. coli (53)
From the text: as §2, §1

[24] = read-out: Modal MIC (most frequent MIC)

CCC[C@H](N)C(=O)N[C@@H](C)C(=O)NC(C)P(=O)(O)O (stereo partly drawn) [compound I, L-norvalinyl-L-alanyl-D/L-fosfalin]
0.25 µg/mL: MIC [16] | MIC [18]
0.125 µg/mL: MIC [5]
> 8 µg/mL: MIC [1] | MIC [2] | MIC [3] | MIC [4] | MIC [10] | MIC [11] | MIC [13] | MIC [14] | MIC [17]
1 µg/mL: MIC [6] | MIC [7] | MIC [8] | MIC [9] | MIC [12]
0.063 µg/mL: MIC [15]

CCC[C@H](N)C(=O)N[C@@H](CCl)C(=O)NC(C)P(=O)(O)O (stereo partly drawn) [compound G, L-Norvalinyl-β-chloro-L-alanyl-D/L-fosfalin]
> 8 µg/mL: MIC [1] | MIC [2] | MIC [3] | MIC [10] | MIC [11] | MIC [13] | MIC [14] | MIC [17]
2 µg/mL: MIC [8]
0.063 µg/mL: MIC [15]
0.25 µg/mL: MIC [5]
1 µg/mL: MIC [6] | MIC [7]
4 µg/mL: MIC [4] | MIC [12]
0.5 µg/mL: MIC [9] | MIC [16] | MIC [18]

CSCC[C@H](N)C(=O)N[C@@H](CCl)C(=O)NC(C)P(=O)(O)O (stereo partly drawn) [compound H, L-methionyl-β-chloro-L-alanyl-D/L-fosfalin]
4 µg/mL: MIC [4]
1 µg/mL: MIC [7] | MIC [8]
0.25 µg/mL: MIC [5] | MIC [18]
0.5 µg/mL: MIC [6] | MIC [9] | MIC [16]
> 8 µg/mL: MIC [1] | MIC [2] | MIC [3] | MIC [10] | MIC [11] | MIC [13] | MIC [14] | MIC [17]
0.032 µg/mL: MIC [15]
2 µg/mL: MIC [12]

C[C@@H]1O[C@@H]1P(=O)(O)O [Fosfomycin, disodium [(2R,3S)-3-methyloxiran-2-yl] phosphonate]
4 µg/mL: MIC50 [19] | MIC50 (Enterobacteriaceae (197); read-out: MIC50) | MIC (Enterobacteriaceae (197); [24]) | MIC50 ([22]; Staphylococcus aureus, read-out: MIC50) | MIC ([22]; Staphylococcus aureus, read-out: Modal MIC (most frequent MIC)) | MIC50 ([23]; read-out: MIC50) | MIC50 (All S. aureus (50); read-out: MIC50) | MIC (K. pneumoniae (87); [24])
2 to 16 µg/mL: MIC Range [22]
0.5 µg/mL: MIC50 (E. coli (53); Escherichia coli, read-out: MIC50) | MIC (E. coli (53); Escherichia coli, read-out: Modal MIC (most frequent MIC))
8 µg/mL: MIC50 ([20]; read-out: MIC50) | MIC [23, 24] | MIC (All S. aureus (50); [24]) | MIC50 (K. pneumoniae (87); read-out: MIC50)
0.125 to 8 µg/mL: MIC Range (E. coli (53))
> 32 µg/mL: MIC50 (E. faecium (34); read-out: MIC50) | MIC90 (E. faecium (34); read-out: MIC90) | MIC (E. faecium (34); [24]) | MIC90 (AmpC (22)) | MIC90 (E. faecalis (11); read-out: MIC90) | MIC90 (Enterobacteriaceae (197); read-out: MIC90) | MIC90 ([20]; read-out: MIC90) | MIC [20, 24] | MIC50 (All Enterococci (50); read-out: MIC50) | MIC90 (All Enterococci (50); read-out: MIC90) | MIC (All Enterococci (50); [24]) | MIC50 ([21]; read-out: MIC50) | MIC90 ([21]; read-out: MIC90) | MIC [21, 24] | MIC90 (K. pneumoniae (87); read-out: MIC90)
16 µg/mL: MIC50 (E. cloacae (27); read-out: MIC50) | MIC (E. cloacae (27); [24]) | MIC [19, 24] | MIC90 ([22]; Staphylococcus aureus, read-out: MIC90) | MIC90 ([23]; read-out: MIC90) | MIC90 (All S. aureus (50); read-out: MIC90)
32 µg/mL: MIC90 (E. cloacae (27); read-out: MIC90) | MIC (AmpC (22); [24]) | MIC50 (E. faecalis (11); read-out: MIC50) | MIC (E. faecalis (11); [24]) | MIC90 [19]
1 µg/mL: MIC90 (E. coli (53); Escherichia coli, read-out: MIC90)

From patent US9969758B2, “Antimicrobial compounds” (BIOMERIEUX, priority 2014, dated 2018)
